The target in one data set is T1, Adenosine receptor A2b (Homo sapiens, UniProt P29275).
T1 sequence (P29275 whole entry): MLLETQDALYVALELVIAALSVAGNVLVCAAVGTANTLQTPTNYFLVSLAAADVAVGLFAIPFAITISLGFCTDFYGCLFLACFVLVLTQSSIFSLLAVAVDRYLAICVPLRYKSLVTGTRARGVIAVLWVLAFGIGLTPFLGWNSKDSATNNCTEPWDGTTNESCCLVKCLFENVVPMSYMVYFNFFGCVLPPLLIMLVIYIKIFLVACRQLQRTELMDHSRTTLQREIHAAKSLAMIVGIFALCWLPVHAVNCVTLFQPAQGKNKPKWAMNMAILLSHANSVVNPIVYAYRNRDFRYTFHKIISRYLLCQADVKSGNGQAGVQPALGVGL
The data set can be described thus: Displacement of [3H]DPCPX from human A2B adenosine receptor expressed in HEK293 cell membranes after 60 mins by radioligand displacement assay. On the technique in general: Loss of bound radioactivity is the signal in a displacement assay; it reports binding, not function.

A short description of data set [1]: Intrinsic clearance in rat hepatocytes by MS/MS analysis. In kind it is ADME, cell-based, Hepatocyte.
Data set [2] in a line: Fraction unbound in mouse plasma by equilibrium dialysis method. It counts as ADME, cell-free. A general note: In equilibrium dialysis free small molecules cross a membrane that holds back macromolecules.
The target of the next data set is T2, Cytochrome P450 1A2 (Homo sapiens, UniProt P05177).
T2 sequence (P05177 whole entry): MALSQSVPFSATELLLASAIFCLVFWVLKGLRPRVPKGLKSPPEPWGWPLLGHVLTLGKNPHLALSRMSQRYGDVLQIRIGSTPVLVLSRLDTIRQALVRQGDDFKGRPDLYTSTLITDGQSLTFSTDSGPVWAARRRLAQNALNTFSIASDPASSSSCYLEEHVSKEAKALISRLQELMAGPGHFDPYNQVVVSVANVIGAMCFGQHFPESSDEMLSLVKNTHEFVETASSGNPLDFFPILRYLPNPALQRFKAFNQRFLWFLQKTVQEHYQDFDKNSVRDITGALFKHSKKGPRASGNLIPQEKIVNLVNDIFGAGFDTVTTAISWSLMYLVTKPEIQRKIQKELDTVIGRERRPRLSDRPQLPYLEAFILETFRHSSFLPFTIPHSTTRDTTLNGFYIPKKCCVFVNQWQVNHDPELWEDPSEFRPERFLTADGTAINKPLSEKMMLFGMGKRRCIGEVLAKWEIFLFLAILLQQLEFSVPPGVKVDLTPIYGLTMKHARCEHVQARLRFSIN
In words: Inhibition of CYP1A2 in human liver microsomes using phenacetin as substrate after 15 mins in presence of NADPH by LC-MS/MS analysis. In kind it is ADME. On the technique in general: Liver microsomes are a subcellular fraction often used to study metabolism.

Another data set deals with Cytochrome P450 3A4 (Homo sapiens, UniProt P08684). The data set can be described thus: Time dependent inhibition of human liver microsomes CYP3A4 using midazolam as substrate in presence of NADPH by LC-MS/MS analysis. It counts as ADME.
Data set [3] can be described thus: Blood clearance in mouse by measuring intrinsic clearance in mouse liver microsomes by MS/MS analysis. In kind it is ADME.
Data set [4] in a line: Blood clearance in rat by measuring Intrinsic clearance in rat hepatocytes by MS/MS analysis. In kind it is ADME, cell-based.
Data set [5] is described as follows: Apparent permeability from apical side to basolateral side in human Caco2 cells. It counts as ADME, cell-based. As to conditions: Caco-2.
Data set [6] relates to Mus musculus. In words: Antifibrotic activity in FITC-induced C57BL/6J mouse pulmonary fibrosis model assessed as reduction in lung weight at 100 to 500 mg/kg, bid administered via gavage pretreated for 45 mins before FITC addition until 72 hrs after FITC application. In kind it is functional, organism-based.
The nature of data set [7]: Dose normalized AUC in mouse at 0.3 mg/kg, iv administered as bolus dose by HPLC-MS/MS analysis. It counts as ADME, organism-based. To be noted: in vivo.
Data set [8] can be described thus: Half life in rat at 0.3 mg/kg, iv administered as infusion for 15 mins by HPLC-MS/MS analysis. It counts as ADME, organism-based. As to conditions: in vivo.
The nature of data set [9]: Clearance in dog plasma at 0.3 mg/kg, iv administered as bolus dose by HPLC-MS/MS analysis. It counts as ADME, organism-based, Canis lupus familiaris.
A short description of data set [10]: Volume of distribution at steady state in dog at 0.3 mg/kg, iv administered as infusion for 15 mins by HPLC-MS/MS analysis. It counts as ADME, organism-based, Canis lupus familiaris. As to conditions: in vivo, read-out: Vdss.
The nature of data set [11]: Half life in dog at 0.3 mg/kg, iv administered as infusion for 15 mins by HPLC-MS/MS analysis. In kind it is ADME, organism-based, Canis lupus familiaris. To be noted: in vivo.
Data set [12] in a line: Dose normalized Cmax in rat at 1 mg/kg, po for 15 mins by HPLC-MS/MS analysis. It counts as ADME, organism-based. To be noted: in vivo, 0.25 h.
Data set [13] is described as follows: MRT in rat at 1 mg/kg, po for 15 mins by HPLC-MS/MS analysis. It counts as ADME, organism-based. To be noted: in vivo.
The target in another data set is T3, Adenosine receptor A1 (Homo sapiens, UniProt P30542).
T3 sequence (P30542 whole entry): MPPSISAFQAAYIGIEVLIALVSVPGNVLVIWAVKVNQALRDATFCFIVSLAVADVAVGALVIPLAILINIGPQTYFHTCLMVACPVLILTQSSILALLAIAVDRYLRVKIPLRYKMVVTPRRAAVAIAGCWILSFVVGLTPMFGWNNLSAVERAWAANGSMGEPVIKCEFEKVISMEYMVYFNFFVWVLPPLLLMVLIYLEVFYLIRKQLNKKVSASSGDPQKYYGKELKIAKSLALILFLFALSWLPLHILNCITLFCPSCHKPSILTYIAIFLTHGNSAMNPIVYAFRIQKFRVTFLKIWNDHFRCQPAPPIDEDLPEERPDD
In words: Displacement of [3H]DPCPX from human A1 adenosine receptor expressed in CHO cell membranes after 60 mins by radioligand displacement assay.

The target in data set [14] is T4, Adenosine receptor A3 (Homo sapiens, UniProt P0DMS8).
T4 sequence (P0DMS8 whole entry): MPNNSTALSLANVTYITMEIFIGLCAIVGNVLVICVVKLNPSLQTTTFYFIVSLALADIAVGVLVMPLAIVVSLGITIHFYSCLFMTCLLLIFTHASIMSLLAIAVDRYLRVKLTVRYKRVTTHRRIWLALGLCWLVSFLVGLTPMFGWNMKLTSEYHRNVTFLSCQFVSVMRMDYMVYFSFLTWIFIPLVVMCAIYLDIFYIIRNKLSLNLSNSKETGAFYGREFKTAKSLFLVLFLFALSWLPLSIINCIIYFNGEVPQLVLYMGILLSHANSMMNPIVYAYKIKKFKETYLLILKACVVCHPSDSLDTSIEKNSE
The data set can be described thus: Displacement of [125I]AB-MECA from human A3 adenosine receptor expressed in HEK293 cell membranes after 120 mins by radioligand displacement assay.

Data set [15] deals with T4, Adenosine receptor A3. In words: Antagonist activity at recombinant human A3 adenosine receptor expressed in CHO cells after 3 to 4 hrs by luciferase reporter gene assay. It counts as cell-based.
For another data set, the target named is Adenosine receptor A2a (Mus musculus, UniProt Q60613). The data set can be described thus: Antagonist activity at recombinant mouse A2A adenosine receptor expressed in CHO cells after 3 to 4 hrs by luciferase reporter gene assay. It counts as cell-based.
The nature of data set [16]: (§1) Anti-inflammatory activity in human LL29 cells assessed as reduction in NECA-induced IL6 level after 24 hrs by ELISA. It counts as functional, cell-based.
The species entered for another data set is Homo sapiens. The description is as §1. It counts as functional, cell-based.
Data set [17] can be described thus: Plasma clearance in mouse. In kind it is ADME, organism-based.
In data set [18] the test system is Mus musculus. In words: Antifibrotic activity in FITC-induced C57BL/6J mouse pulmonary fibrosis model assessed as reduction in IL-6 level in BALF homogenate at 100 to 500 mg/kg, bid administered via gavage pretreated for 45 mins before FITC addition until 72 hrs after FITC application by ELISA. In kind it is functional, organism-based.

The source of these data is ChEMBL document CHEMBL4422615, “Novel non-xanthine antagonist of the A2B adenosine receptor: From HTS hit to lead structure” (Eur J Med Chem, 2019).

As a reminder, the IC50 is the concentration needed to halve the response being measured. Usually fraction unbound stands for the share of the substance not bound to proteins or other matrix. A lower fraction unbound goes with extensive binding. For orientation: Papp A→B means the apparent permeability from the apical to the basolateral side of a cell layer. As a reminder, the half-life is the time needed for the level to fall by half in the phase considered. The clearance is a measure of how efficiently the substance is removed, as volume per time. Lower therefore signals a low capacity for elimination. What is called MRT is a mean duration of stay, worked out from the concentration-time curve. Usually Ki stands for a dissociation constant, usually derived from enzyme kinetics or from competition with a known ligand.

The source made the active and inactive calls.

Adenosine receptor A2a, sequence (Q60613 whole entry): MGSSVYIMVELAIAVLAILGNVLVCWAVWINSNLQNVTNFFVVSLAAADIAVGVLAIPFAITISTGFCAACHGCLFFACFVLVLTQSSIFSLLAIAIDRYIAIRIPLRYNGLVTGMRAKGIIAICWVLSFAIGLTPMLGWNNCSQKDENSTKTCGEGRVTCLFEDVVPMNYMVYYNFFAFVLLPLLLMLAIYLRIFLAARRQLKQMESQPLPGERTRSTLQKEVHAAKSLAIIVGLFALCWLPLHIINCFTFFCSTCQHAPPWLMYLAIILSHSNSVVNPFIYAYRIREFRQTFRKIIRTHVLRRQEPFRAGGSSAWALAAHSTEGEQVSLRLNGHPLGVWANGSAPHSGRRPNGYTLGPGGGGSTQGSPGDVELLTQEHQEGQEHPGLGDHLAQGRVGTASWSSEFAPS
Cytochrome P450 3A4, sequence (P08684 whole entry): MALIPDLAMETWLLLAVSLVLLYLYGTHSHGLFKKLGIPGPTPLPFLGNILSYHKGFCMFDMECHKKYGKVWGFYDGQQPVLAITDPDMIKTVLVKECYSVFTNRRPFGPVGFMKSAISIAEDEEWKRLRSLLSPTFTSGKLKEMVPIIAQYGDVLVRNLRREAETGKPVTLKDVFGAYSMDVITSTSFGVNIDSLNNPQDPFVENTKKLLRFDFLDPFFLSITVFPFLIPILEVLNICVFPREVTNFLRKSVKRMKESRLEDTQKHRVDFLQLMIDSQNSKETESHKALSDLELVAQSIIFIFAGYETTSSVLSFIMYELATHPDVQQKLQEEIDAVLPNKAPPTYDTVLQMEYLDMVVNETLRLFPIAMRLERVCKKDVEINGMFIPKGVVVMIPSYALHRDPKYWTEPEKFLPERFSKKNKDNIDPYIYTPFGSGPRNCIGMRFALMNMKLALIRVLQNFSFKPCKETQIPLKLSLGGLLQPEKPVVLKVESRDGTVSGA

`CCn1c(=O)c2c(C)c(C(=O)N3CCC(O)CC3)sc2n(CCC(F)(F)F)c1=O`: the IC50 on Adenosine receptor A2b is 59 to 66 nM; on Cytochrome P450 1A2, more than 20000 nM; on Adenosine receptor A3 [15] it was more than 6700 nM; at Adenosine receptor A2a, 470 nM; in data set [16], 185 nM. Also, the CLhep predicted in data set [1] is 23.3 mL/min/kg; in data set [3] it was less than 8.33 mL/min/kg; in data set [4], 23.3 mL/min/kg. Moreover, the fraction unbound in data set [2] was 0.3. Also, the TDI result on Cytochrome P450 3A4 was “Not Active”. Further, in data set [5], the apparent permeability from apical to basolateral (Papp A→B) was 48 ×10⁻⁶ cm/s. The outcome in the data set with Mus musculus [6] was Active. In [7], the AUC/dose was determined as 1.6 kg·h/L. In addition, the half-life is 1.4 h in data set [8] and 6.6 h in data set [11]. The clearance in data set [9] is 6.67 mL/min/kg; in [17], 10.2 mL/min/kg. Moreover, the Vd in data set [10] worked out at 2 L/kg. Further, in [12], the Cmax/dose is 0.33 kg/L. The MRT in data set [13] turned out to be 2 h. Besides, the inhibitory constant (Ki) is more than 1000 nM at Adenosine receptor A1 and more than 10000 nM on Adenosine receptor A3 [14]. Further, the Activity entry in the data set filed under Homo sapiens is “Dose-dependent effect”. Further, in the data set on Mus musculus [18], the result was inactive.
